Data published in patent publication US9688760B2, “Anti-leukocyte adhesion for the mitigation of potential adverse events caused by CD3-specific binding domains” (AMGEN RESEARCH (MUNICH) GMBH, priority 2013, dated 2017).

System: recombinant human P-selectin
Test: Flow chamber: T cell-rolling on recombinant P-selectin, semi short-term conditions
Format: cell-based
Settings: +AMG 103 10 ng/ml, coated at 20 μg/ml
Experimental: Recombinant proteins (rhICAM-1 #ADP4-050, rhVCAM-1 #ADP5-050 or rhP-selectin #ADP3-050, R&D Systems) were dissolved in ddH2O according to the manufacturer's instructions. Prior to rolling experiments recombinant proteins were diluted in Dulbecco's PBS with Ca^2+ and Mg^2+ (#L1815, Biochrom) and coated onto a μ-slide VI^0.4 Luer ibiTreat (#80606, ibidi) over night at 4° C. Before usage slides were washed three times with Dulbecco's PBS and blocked where indicated with 20% FBS (#10270, Gibco) in PBS for 2 h at room temperature. Blocking solution was replaced by RPMI 1640 medium (#FG1215, Biochrom) without supplements.
Isolation and characterization of human peripheral blood mononuclear cells (PBMC) and T cells from blood were performed as described in Example 2 (p. 48, 1-31). […]
For rolling experiments using freshly isolated T cells, these cells were resuspended in RPMI 1640 medium (#FG1215, Biochrom) without supplements to a final concentration of 1×10^6 cells/ml at the start of the experiment (t=0 min; addition of 10 ng/ml Blinatumomab (AMG 103)) and incubated for 35 min at 37° C. and 5% CO2. Cells were then filled in a perfusion set “white” (#10963, ibidi) which was connected to both a fluidic unit and the μ-slide and image sequences of 45 sec duration were recorded at t=40 min, 45 min, and 50 min as described in Example 2 (p. 50, 18-23). […]

## Blinatumomab: recombinant CD19×CD3 bispecific scFv antibody consisting of four immunoglobulin variable domains assembled into a single polypeptide chain
Jurkat E6.1 T cells, t=45 min, control −AMG 103 500±81
  mean T cell-rolling velocity±SD: 413±104 μm/sec
Freshly isolated T cells, t=50 min, with blocking, control −AMG 103 402±115
  mean T cell-rolling velocity±SD: 293±73 μm/sec
